The values below come from patent US10752591B2, “18-20 member bi-polycyclic compounds” (Haro Pharmaceutical Inc., priority 2014, dated 2020).

For orientation: Cmax means the highest concentration seen after dosing. As a reminder, the MRT is the average time that molecules of a dose stay in the body. The term Tmax denotes the time at which the peak concentration occurs.

The structures appear in SMILES notation.

For one series, the system named is Lys382 acetylated p53. In words: intracellular acetylation of p53 in IMR-32 cells (western blot). Type of series: cell-based. The conditions noted are these: 1 μM or 5 μM, 16 hours. The method, then:
The effect of certain compounds on intracellular acetylation of target proteins was tested in high risk neuroblastoma cells, BE-2C and IMR-32 cells.
IMR32 cells were grown to confluence in phenol-red-free RPMI media supplemented with 10% es grade FBS and 2.5 mM Ala-Glu. Cells were treated with DMSO or 1 μM or 5 μM compound 13 in DMSO for 16 hours. Protein extracts were prepared in RIPA buffer in the presence of protease and phosphatase inhibitors. Proteins were separated on a 4-20% gel by PAGE and transferred to a nitrocellulose membrane.
Beta actin, total and Lys382 acetylated p53, and Lys40 acetylated alpha, and total tubulin were detected using antibodies (Cell Signaling #8557, #2524 #2525, #12152 and #2144 respectively) using manufacturer recommended conditions.
(In western blotting, separated proteins are transferred to a membrane and probed.)

The next series relates to C2Cl2 myoblasts. In words: myotube fusion and degeneration in differentiated C2Cl2 cells left in exhausted media. Type of series: cell-based. The note with it: 200 nM pre-treatment. The method, then:
C2Cl2 myoblasts were seeded at 100,000 in 30 mm plate in growth medium (Phenol red-free RMPI containing 10% FBS, Sodium pyruvate and Ala-Glu), and “pre-treated” with DMSO or 200 nM of compounds 13 or 17. At confluence cells were shifted to differentiation media (high glucose DMEM, +0.2% HS+1× Insulin/Transferrin/Selenium (Life Tech 41400-045)+Glutamine, without Pyruvate). Fully differentiated C2Cl2-derived myotubes were left in culture without media renewal for 8 days followed by media renewal and microscopic examination.

For series [1], the target named is T1, purified recombinant human HDAC-6 (Homo sapiens, UniProt Q9UBN7).
T1 construct: purchased Cayman Chem 10009465
T1 sequence (Q9UBN7 1-1215): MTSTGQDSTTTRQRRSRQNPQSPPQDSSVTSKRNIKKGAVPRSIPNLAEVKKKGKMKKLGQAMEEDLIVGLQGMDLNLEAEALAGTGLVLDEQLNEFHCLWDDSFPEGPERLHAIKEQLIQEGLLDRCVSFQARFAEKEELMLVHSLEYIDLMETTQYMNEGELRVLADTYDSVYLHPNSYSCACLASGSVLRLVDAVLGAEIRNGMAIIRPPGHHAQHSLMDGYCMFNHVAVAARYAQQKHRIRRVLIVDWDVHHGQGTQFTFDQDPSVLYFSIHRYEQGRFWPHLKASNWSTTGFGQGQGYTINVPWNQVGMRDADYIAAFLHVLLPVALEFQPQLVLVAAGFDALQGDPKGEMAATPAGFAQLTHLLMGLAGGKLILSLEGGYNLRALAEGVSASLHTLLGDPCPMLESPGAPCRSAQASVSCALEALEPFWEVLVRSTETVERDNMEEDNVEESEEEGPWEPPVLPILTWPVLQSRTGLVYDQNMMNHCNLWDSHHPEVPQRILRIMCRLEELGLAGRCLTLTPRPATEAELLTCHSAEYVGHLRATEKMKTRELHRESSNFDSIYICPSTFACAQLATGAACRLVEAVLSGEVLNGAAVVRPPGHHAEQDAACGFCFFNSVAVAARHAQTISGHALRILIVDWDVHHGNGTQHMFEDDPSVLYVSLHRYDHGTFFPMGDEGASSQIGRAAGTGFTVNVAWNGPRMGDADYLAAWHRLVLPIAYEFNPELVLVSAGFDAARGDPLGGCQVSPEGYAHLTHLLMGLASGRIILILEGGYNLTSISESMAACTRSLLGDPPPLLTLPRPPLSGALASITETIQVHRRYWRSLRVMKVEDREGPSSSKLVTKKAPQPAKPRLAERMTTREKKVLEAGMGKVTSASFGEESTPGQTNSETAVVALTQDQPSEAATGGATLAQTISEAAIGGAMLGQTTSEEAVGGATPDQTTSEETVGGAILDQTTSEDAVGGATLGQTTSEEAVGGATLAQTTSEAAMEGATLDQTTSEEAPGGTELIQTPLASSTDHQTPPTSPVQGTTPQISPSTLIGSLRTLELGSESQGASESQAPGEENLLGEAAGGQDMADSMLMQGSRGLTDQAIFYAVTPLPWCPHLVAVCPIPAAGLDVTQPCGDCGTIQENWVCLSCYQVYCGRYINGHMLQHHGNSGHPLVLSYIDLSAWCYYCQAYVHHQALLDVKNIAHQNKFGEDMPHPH
In words: HDAC-6 enzymatic inhibition (AMC fluorogenic peptide deacetylation). Type of series: biochemical. The conditions noted are these: relative to compound 17. The method, then:
The effect of compounds on the enzymatic activity of purified recombinant human HDAC-1, -2, -3, -6, and -8 activity and of purified rat liver HDAC was examined by measuring the deacetylation of synthetic peptides in various preparations of HDACs. HDAC assays were performed using a two-step enzymatic reaction where enzyme activity is correlated to the release of […] (AMC). AMC fluorescence is measured in a fluorescent plate reading using λex380 nm and λen440 nm.
The reaction was allowed to proceed for 40 min at 37° C., after which developer solution (0.5% trypsin, 10 μM trichostatin A (TSA)) was added to obtain a final concentration of 0.1% trypsin, 2 μM TSA. After 30 minutes at room temperature, the amount of free fluorogenic AMC was measured as described above.

The next series has as its system RAR. Briefly: RAR-mediated transcription, RARE-tk luciferase reporter in MCF7 cells. Type of series: cell-based. The source says:
The effect of various compounds of the invention on RAR-mediated transcription in MCF7 breast cancer cells was examined by measuring their effect on the transcription of a luciferase reporter gene under the control of a TK promoter placed downstream of a RAR response element. In addition, the effect of the compounds on the closely related RXR-mediated transcription was examined by measuring their effect on the transcription of a luciferase reporter gene under the control of a TK promoter placed downstream of a RXR response element.
Typically, 10,000 cells were plated in 96 wells plates in phenol red-free RPMI medium supplemented with 10% charcoal-stripped Fetal Bovine Serum. After 24 hours, cells were transfected with 0.1 μg of luciferase reporter plasmid and 0.01 μg of a reporter plasmid expressing renilla luciferase (RLuc) gene under the control of a SV40 promoter, using Fugene 6 transfection reagent (0.5 μl/well Promega Corporation). Cells were treated in triplicate with compounds or vehicle (DMSO) for 24 hours. Luciferase and renilla luciferase activities were measured using Dual-Glo reagent (Promega Corporation). Luciferase activity was normalized in each well for renilla activity.
A general note: A reporter such as luciferase makes a cellular process visible.

A short description of a further series: mouse pharmacokinetics. The note with it: mice. Type of series: in vivo. The procedure: Mouse pharmacokinetics studies were conducted in female athymic nude or male C57/B6 mice (n=3). Due to its very poor aqueous solubility, compound 17 was formulated in 66% PEG-400/33% H2O-1% Tween-80. In contrast compound 13 was formulated in 66% PEG-400/33% H2O. Compounds were administered PO (30 mg/kg) or IV (5 mg/kg), and plasma concentrations were measured by UV/HPLC.

The mark [2] stands for this setting: PO (30 mg/kg) or IV (5 mg/kg), route per parameter not stated.

Consider `CC1(C)CCC(C)(C)c2cc(-c3cc4cc(C(=O)NO)ccc4[nH]3)ccc21` [Compound 13], for which, in the series with Lys382 acetylated p53, the “lysine acetylated p53 level” value is reported as “pronounced accumulation of lysine acetylated p53”. In the series on C2Cl2 myoblasts, the “cellular fusion after 72 hours differentiation versus DMSO” value was “extensive cellular fusion” and the “myotube structural atrophy in exhausted media for over 8 days” value is on record as “very little structural alteration”. Moreover, the “fold more potent than compound 17 in HDAC-6 inhibition” value in series [1] is reported as “at least 50”. The “RARE-dependent luciferase expression” value with RAR was “activated”. In addition, the “times more potent than compound 17 in activating RARE-tk_luc reporter” value with RAR (relative to compound 17) was “five to ten”. Besides, in “mouse pharmacokinetics”, the “T max compared with compound 17” value is on record as “markedly reduced” and the “oral bioavailability, AUC, Cmax compared with compound 17” value is “markedly higher”. In “mouse pharmacokinetics” (setting [2]), the “AUC0-∞” value turned out to be 42.00 µM·h, the CLp was determined as 0.24 mL/min/kg, the peak level (Cmax) was 5.54 µM and the MRT came to 6.9 h. Besides, in the series “mouse pharmacokinetics” (setting [2]), the time to peak (Tmax) is given as 1.4 h and the “Vd,ss” value was 8 L/kg.
